Source: the supplement of paper PMC13380429

How the values were obtained:
[1] = test system: A549-ACE2 infected with SARS-CoV-2; assay: morphology score (similarity to uninfected cells); higher = more like uninfected cells; conditions: 24 h
Vero E6 [2] = assay: relative viability EC50 (midpoint between 100% and the lowest measured viability); higher = less toxic; conditions: 72 h
U2OS [3] = assay: as above; conditions: 72 h
HepG2 [4] = assay: as above; conditions: 72 h
Calu-3 [5] = assay: as above; conditions: 72 h
Caco-2 [6] = assay: as above; conditions: 72 h
[7] = test system: A549-ACE2 infected with SARS-CoV-2; assay: cell count relative to DMSO; higher = less toxic; conditions: 24 h
[8] = test system: A549-ACE2 infected with SARS-CoV-2; assay: SARS-CoV-2 infection rate relative to DMSO; higher = more infection; conditions: 24 h
Vero E6 [9] = assay: drug sensitivity score (DSS) for viability; higher = more toxic; extreme values may be limits of the assay; conditions: 72 h
U2OS [10] = assay: as above; conditions: 72 h
HepG2 [11] = assay: as above; conditions: 72 h
Calu-3 [12] = assay: as above; conditions: 72 h
Caco-2 [13] = assay: as above; conditions: 72 h
Vero E6 [14] = assay: cell viability relative to DMSO; higher = less toxic; conditions: 72 h
U2OS [15] = assay: as above; conditions: 72 h
HepG2 [16] = assay: as above; conditions: 72 h
Calu-3 [17] = assay: as above; conditions: 72 h
Caco-2 [18] = assay: as above; conditions: 72 h
A549-ACE2 [19] = assay: drug-induced phospholipidosis relative to tamoxifen; higher = more phospholipidosis
A549-ACE2 [20] = assay: phospholipidosis EC50; higher = less potent phospholipidosis inducer

CC(C)C[C@H](NC(=O)[C@H](Cc1ccccc1)NC(=O)c1cnccn1)B(O)O [bortezomib]
Conditions	SARS-CoV-2 infection rate, [8] [%]	cell count, [7] [%]	cell viability, Caco-2 [18] [%]	cell viability, Calu-3 [17] [%]	cell viability, HepG2 [16] [%]	cell viability, U2OS [15] [%]	cell viability, Vero E6 [14] [%]	morphology score, [1]
1 nM	–	–	104	103	122	104	111	–
10 nM	–	–	20.1	26.4	59.1	63.9	66.4	–
100 nM	–	–	4.1	4.4	1.8	-0.1	3	–
0.3 µM	45	57	–	–	–	–	–	0.26
1000 nM	–	–	5.9	5	-0.2	-0.4	0.2	–
3 µM	21	30	–	–	–	–	–	0.33
10 µM	16	27	–	–	–	–	–	0.29
10000 nM	–	–	6.2	2.4	-0.3	-0.4	0.1	–
30 µM	23	24	–	–	–	–	–	0.23

Conditions	drug sensitivity score	relative viability EC50 [µM]
Caco-2 [6]	–	0.0053
Caco-2 [13]	38.6	–
Calu-3 [5]	–	0.0064
Calu-3 [12]	38.3	–
HepG2 [4]	–	0.0116
HepG2 [11]	35.9	–
U2OS [3]	–	0.0126
U2OS [10]	35.5	–
Vero E6 [2]	–	0.0132
Vero E6 [9]	35.2	–

C[C@@H](NCCCc1cccc(C(F)(F)F)c1)c1cccc2ccccc12 [cinacalcet]
Conditions	SARS-CoV-2 infection rate [%]	cell count [%]	cell viability [%]	morphology score	phospholipidosis EC50 [µM]
A549-ACE2 [20], 24 h	–	–	–	–	2.77
A549-ACE2 [20], 48 h	–	–	–	–	4.97
A549-ACE2 [20], 72 h	–	–	–	–	5.11
Caco-2 [18], 1 nM	–	–	99.8	–	–
Caco-2 [18], 10 nM	–	–	96.4	–	–
Caco-2 [18], 100 nM	–	–	100	–	–
Caco-2 [18], 1000 nM	–	–	89.1	–	–
Caco-2 [18], 10000 nM	–	–	68.4	–	–
Calu-3 [17], 1 nM	–	–	109	–	–
Calu-3 [17], 10 nM	–	–	109	–	–
Calu-3 [17], 100 nM	–	–	101	–	–
Calu-3 [17], 1000 nM	–	–	98.6	–	–
Calu-3 [17], 10000 nM	–	–	7.3	–	–
HepG2 [16], 1 nM	–	–	98	–	–
HepG2 [16], 10 nM	–	–	102	–	–
HepG2 [16], 100 nM	–	–	87.9	–	–
HepG2 [16], 1000 nM	–	–	96.4	–	–
HepG2 [16], 10000 nM	–	–	66.3	–	–
U2OS [15], 1 nM	–	–	106	–	–
U2OS [15], 10 nM	–	–	95.8	–	–
U2OS [15], 100 nM	–	–	103	–	–
U2OS [15], 1000 nM	–	–	99.6	–	–
U2OS [15], 10000 nM	–	–	89.4	–	–
Vero E6 [14], 1 nM	–	–	102	–	–
Vero E6 [14], 10 nM	–	–	106	–	–
Vero E6 [14], 100 nM	–	–	104	–	–
Vero E6 [14], 1000 nM	–	–	101	–	–
Vero E6 [14], 10000 nM	–	–	82.2	–	–
[1], 0.3 µM	–	–	–	0.09	–
[1], 3 µM	–	–	–	0.67	–
[1], 10 µM	–	–	–	0.55	–
[7], 0.3 µM	–	96	–	–	–
[7], 3 µM	–	103	–	–	–
[7], 10 µM	–	87	–	–	–
[8], 0.3 µM	93	–	–	–	–
[8], 3 µM	59	–	–	–	–
[8], 10 µM	54	–	–	–	–

drug-induced phospholipidosis [%], A549-ACE2 [19]
Conditions	0.3 µM	0.833333 µM	3.33333 µM	6.66667 µM	10 µM	30 µM
24 h	3.21	8.87	65.6	89.9	102	53.7
48 h	2.84	6.54	45.1	87.9	107	–
72 h	4.18	6.97	37.3	82.3	102	–

Conditions	drug sensitivity score	relative viability EC50 [µM]
Caco-2 [13]	2.9	–
Calu-3 [5]	–	3.06
Calu-3 [12]	5.3	–
HepG2 [11]	2.2	–
U2OS [3]	–	> 10
U2OS [10]	0	–
Vero E6 [2]	–	> 10
Vero E6 [9]	0.4	–
